Experimental data from patent US8697747B2, “Enhancing coagulation or reducing fibrinolysis” (THe UAB Research Foundation, priority 2009, dated 2014).
Marks after values point to notes of the source that are not given here.

Columns and labels:
pooled normal plasma = assay: Thrombelastographic coagulation kinetics, tissue factor-activated normal plasma; assay type: biochemical, human; settings: 100 μM
Description: Pooled normal plasma (George King Bio-Medical, Overland Park, Kans.) anticoagulated with sodium citrate was utilized for experimentation. […] Factor XIII (FXIII) deficient plasma anticoagulated with sodium citrate was also obtained from George King Bio-Medical (Overland Park, Kans.).
Plasma Sample Composition. The final volume for all subsequently described plasma sample mixtures was 359.4 μL. […] (Motterlini et al., Expert Opin Investig Drugs, 14:1305-1318 (2005), which is incorporated by reference herein in its entirety).
Clot Lifespan Model Analyses. Plasma sample mixtures were placed in a disposable cup in a computer-controlled THROMBELASTOGRAPH® hemostasis system (Model 5000, Haemoscope Corp., Niles, Ill.), with addition of CaCl2 as the last step to initiate clotting. Data were collected for 15 minutes, as normal plasma completes thrombus formation within this interval in this system (Dong et al., Eur J Pharmacol 590:99-104 (2008)).
Statistical Analyses. Data are presented as mean±SD. All conditions described were represented with n=8 experiments, as n=6-8 typically provides statistical power>0.8 in similar analyses (Nielsen et al., Acta Anaesthesiol Scand 49:222-231 (2005) and Nielsen et al., Blood Coagul Fibrinolysis 17:75-81 (2006)). Analyses of the effects of CORM-2 and iCORM-2 on thrombelastographic variables were conducted using one way analysis of variance with the Holm-Sidak test used for post hoc comparisons. Graphical representation of the data was generated with commercially available software (Origin 7.5, OriginLab Corp., Northampton, Mass.). A P value of ≦0.05 was considered significant.

rabbit plasma = assay: Thrombelastography in rabbit plasma with or without tPA; assay type: biochemical
Description: Two sets of two Sprague Dawley outbred male rats were anesthetized with ketamine and xylazine and had blood drawn via cardiac puncture, pooled in two batches, and anticoagulated 1:9 with 3.2% sodium citrate. Two male New Zealand White rabbits were sedated with acepromazine and had blood collected via central ear artery and similarly anticoagulated. Blood was centrifuged at 3000×g for 15 min, and the plasma stored in two batches until analyzed. The final volume for thrombelastographic plasma sample mixtures was 359.6 μL. Sample composition consisted of 316 μL of plasma; 10 μL of tissue factor reagent (0.1% final concentration in dH2O; Instrumentation Laboratory, Lexington, Mass.); 10 μL of dH2O or tissue-type plasminogen activator (tPA, 580 U/μg, Genentech, Inc., San Francisco, Calif.) for a final activity of 2000 U/mL for rat plasma or 300 IU/mL for rabbit plasma; 3.6 μL of dimethyl sulfoxide (DMSO) or DMSO with CORM-2 (100 μM final concentration; Sigma-Aldrich, St. Louis, Mo.); and 20 μL of 200 mM CaCl2. The tPA activity for each species was determined with pilot data to obtain reproducible lysis within 15 min. There was no appreciable lysis in rat plasma at 100, 300, or 1000 U/mL tPA. Plasma sample mixtures were placed in a disposable cup in a computer-controlled THROMBELASTOGRAPH® hemostasis system (Model 5000, Haemoscope Corp., Niles, Ill.), with addition of CaCl2 as the last step to initiate clotting. In experiments without tPA, data were collected until clot strength (maximum amplitude) was stable. In experiments with tPA, data derived from the second rabbit plasma samples were collected for 60 min whereas data obtained with the second rat plasma samples were collected for 15 min. Thrombelastographic variables were determined at 39° C. as previously described in Examples 1, 2, and 4. Data were statistically compared with unpaired Student's t-test.

[1] = TF-activated normal plasma, mean ± SD, n=8
[2] = 300 U/ml tPA, 100 μM CORM-2, mean ± SD, n=4
[3] = 300 U/ml tPA, 100 μM vs 0 μM CORM-2
[4] = no tPA, 100 μM CORM-2, mean ± SD, n=7

Q: What does the source list for `[C-]#[O+].[C-]#[O+].[C-]#[O+].[C-]#[O+].[C-]#[O+].[C-]#[O+].[Cl][Ru][Cl].[Cl][Ru][Cl]` [CORM-2, tricarbonyldichlororuthenium (II) dimer]?
A: MRTG (maximum rate of thrombus generation) (pooled normal plasma; [1]): 9.1 ± 0.9 dynes/cm^2/sec; TMRTG (time to maximum rate of thrombus generation) (pooled normal plasma; [1]): 156 ± 13 s; TTG (total thrombus generation) (pooled normal plasma; [1]): 273 ± 21 dynes/cm^2; velocity of clot growth relative to unexposed samples (pooled normal plasma; tissue factor activation): more than double; ACL (area under the curve of lysis) (rabbit plasma; [2]): 196.3 ± 25*^ −dynes/cm^2; MRL (maximum rate of lysis) (rabbit plasma; [2]): −2.5 ± 0.4 −dynes/cm^2/sec; MRTG (maximum rate of thrombus generation) (rabbit plasma; [2]): 14.2 ± 1.4 dynes/cm^2/sec; TMRL (time to maximum rate of lysis) (rabbit plasma; [2]): 2.6 ± 0.5 min; TMRTG (time to maximum rate of thrombus generation) (rabbit plasma; [2]): 2.8 ± 0.1 min; TTG (total thrombus generation) (rabbit plasma; [2]): 237 ± 8 dynes/cm^2; Percent Change of ACL (rabbit plasma; [3]): 94%; Percent Change of MRL (rabbit plasma; [3]): −63%; Percent Change of MRTG (rabbit plasma; [3]): 52%; Percent Change of TMRL (rabbit plasma; [3]): 110%; Percent Change of TMRTG (rabbit plasma; [3]): 8%; Percent Change of TTG (rabbit plasma; [3]): 118%; MRTG (maximum rate of thrombus generation) (rabbit plasma; [4]): 13.9 ± 2.9 dynes/cm^2/sec; TMRTG (time to maximum rate of thrombus generation) (rabbit plasma; [4]): 2.8 ± 0.1 min; TTG (total thrombus generation) (rabbit plasma; [4]): 290 ± 35 dynes/cm^2; Percent Change of MRTG (rabbit plasma; no tPA, 100 μM vs 0 μM CORM-2): 46%; Percent Change of TMRTG (rabbit plasma; no tPA, 100 μM vs 0 μM CORM-2): 5%; Percent Change of TTG (rabbit plasma; no tPA, 100 μM vs 0 μM CORM-2): 25%
